Experimental data reported in patent US8921405B2, “Compounds” (Orexo AB, priority 2009, dated 2014).

Biological target: T1, recombinant human mPGES-1 (Homo sapiens, UniProt O14684)
T1 construct: made in house; host or cells: Rosetta E. coli (membrane/microsome fraction)
T1 sequence (O14684 1-152): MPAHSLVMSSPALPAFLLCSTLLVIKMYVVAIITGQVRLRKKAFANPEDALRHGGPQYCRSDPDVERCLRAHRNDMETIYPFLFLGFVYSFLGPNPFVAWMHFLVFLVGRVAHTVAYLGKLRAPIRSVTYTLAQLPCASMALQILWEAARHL
Assay: mPGES-1 HTRF assay (inhibition of PGE2 formation from PGH2)
Assay type: biochemical
Details: compound concentration of 10 μM, HTRF assay; read-out: % inhibition
Description: The basis of the assay used is to measure the inhibition of microsomal prostaglandin E2 synthase-1 (mPGES-1) dependent prostaglandin (PG) E2 formation from PGH2 by different compounds. Thus, the formation of PGE2 is used as signal and a lowering of this signal can be interpreted as inhibition of mPGES-1. […] Microsomes from Rosetta E. coli bacteria expressing recombinant human mPGES-1 can be derived as described below: Inoculate 5 ml LB with Amp and Chloro with bacteria from freeze culture. Incubate over night at 37° C. with 200 rpm. Thereafter, inoculate 500-800 ml LB containing Amp and Chloro with the 5 ml on culture and grow to OD640 of 0.6-0.8. Chill the culture to +4° C. before induction. Induce the culture with IPTG at a final concentration of 400 μM. Express the protein at room temp 18-23° C. with 200 rpm shaking over night. The following steps can be performed on the following day: • 1. Spin down the cells in 250 ml centrifuge flasks for 15 min at 7000 rpm • 2. Dissolve the pellet from 250 ml culture in 12.5 ml homogenization buffer • 3. Disintegrate the cells by sonication, 4×10 seconds at 35% amplitude • 4. Add 2.5 ml MgCl2 (100 mM) and DNase 12.5 μl (0.8 mg/ml) and incubate on ice for 30 min • 5. Spin down the bacteria debris and save the supernatant, 7000 rpm for 15 min • 6. Isolate the protein containing membranes in the supernatant by ultracentrifugation 45000×g for 1 hour. • 7. Discard the supernatant and dissolve the pellet in 20 mM KPi buffer and aliquot the enzyme and store aliquots at −80° C. Before each experiment is performed an aliquot of the enzyme is thawed and it can then be dissolved in 0.1 M KPi pH 7.4 buffer containing 2.5 mM GSH. 50 μl of this enzyme solution is subsequently dispensed in a 384-well plate at room temperature. 0.5 μl of the inhibitor dissolved in DMSO is thereafter added to each well and incubated for 25 minutes at room temperature. Subsequently, 2 μl of PGH2 dissolved in an appropriate solvent is added to each well and after one minute at room temperature, the acidified stop solution containing FeCl2 is added. 4 μl of the total volume is transferred to a separate plate and diluted 750-fold in two separate steps before quantification of PGE2. In order to quantitate the amount of PGE2 that has been formed, a homogenous time resolved fluorescent (HTRF) detection of PGE2 can be performed by the use of a commercially available kit from CisBio essentially according to the manufacturer's protocol. […] The sealing film is thereafter removed from the NC wells. • 5 μl Eu3+-cryptate labeled anti-PGE2 can now be added to rows 1 to 24 by using a Multidrop. • The plate can now be covered with sealing film. • The plate can now be centrifuge at 1200 rpm for 1 minute and place at 4° C. overnight. After the over night incubation the fluorescence is measured by the use of an appropriate microplate reader. […] The extent of the specific HTRF is measured as a ratio of the emission intensity at 665 nm vs. that at 620 nm. A standard curve using synthetic PGE2 is used to quantify the amount of PGE2 in unknown samples. The degree of inhibition can be calculated as percent inhibition by dividing the amount of PGE2 formed in unknown samples by the amount of PGE2 formed in control samples.

inhibition at 10 µM [%] | Compound
100 | CN(C1CCCC1)S(=O)(=O)c1ccc2c(c1)nc(Nc1cc(CNC(=O)C3(C)CCCCC3)ccc1Cl)n2C [Example 26, N-{4-Chloro-3-[5-(N-cyclopentyl-N-methylsulfamoyl)-1-methyl-2-benzimidazolylamino]benzyl}-1-methylcyclohexylamide]
100 | Cn1c(Nc2cc(CNC(=O)c3c(F)cccc3Cl)ccc2Cl)nc2cc(C(=O)NCC3CCCCC3)ccc21 [Example 27, 2-{2-Chloro-5-[(2-chloro-6-fluorobenzamido)methyl]phenylamino}-N-cyclohexylmethyl-1-methylbenzimidazole-5-carboxamide]
100 | Cn1c(Nc2cc(CNC(=O)C3CCCO3)ccc2Cl)nc2cc(C(=O)NCC3CCCCC3)ccc21 (stereo not drawn) [Example 28, 2-{2-Chloro-5-[(2-tetrahydrofurylamido)methyl]phenylamino}-N-cyclohexylmethyl-1-methylbenzimidazole-5-carboxamide]
98 | Cn1c(Nc2cc(CNC(=O)C3(C(F)(F)F)CC3)ccc2Cl)nc2cc(C(=O)NCC3CCCCC3)ccc21 [Example 30, 2-{2-chloro-5-[(1-trifluoromethylcyclopropylamido)methyl]phenyl-amino}-N-cyclohexylmethyl-1-methylbenzimidazole-5-carboxamide]
99 | Cn1c(Nc2cc(CNC(=O)C3(C)CCCC3)ccc2Cl)nc2cc(C(=O)NCC3CCCCC3)ccc21 [Example 31, 2-{2-Chloro-5-[(1-methylcyclopentylamido)methyl]phenylamino}-N-cyclohexylmethyl-1-methylbenzimidazole-5-carboxamide]
98 | CC(=O)NCc1ccc(Cl)c(Nc2nc3cc(C(=O)NCC4CCCCC4)ccc3n2C)c1 [Example 32, 2-[5-(Acetamidomethyl)-2-chlorophenylamino]-N-cyclohexylmethyl-1-methylbenzimidazole-5-carboxamide]
93 | Cn1c(Nc2cc(CNC(=O)OC(C)(C)C)ccc2Cl)nc2cc(C(=O)NCC3CCCCC3)ccc21 [Example 33]
100 | Cn1c(Nc2cc(CNC(=O)C3(C)CCCC3)ccc2Cl)nc2cc(C(=O)Nc3ccc(Br)cc3)ccc21 [Example 41, N-(4-Bromophenyl)-2-{2-chloro-5-[(1-methylcyclopentylamido)methyl]-phenylamino}-1-methylbenzimidazole-5-carboxamide]
100 | Cn1c(Nc2cc(CNC(=O)C3(C#N)CCCC3)ccc2Cl)nc2cc(C(=O)Nc3ccc(Br)cc3)ccc21 [Example 42, N-(4-Bromophenyl)-2-{2-chloro-5-[(1-cyanocyclopentylamido)methyl]-phenylamino}-1-methylbenzimidazole-5-carboxamide]
100 | CC(=O)NCc1ccc(Cl)c(Nc2nc3cc(C(=O)Nc4ccc(Br)cc4)ccc3n2C)c1 [Example 43, 2-[5-(Acetamidomethyl)-2-chlorophenylamino]-N-(4-bromophenyl)-1-methylbenzimidazole-5-carboxamide]
100 | CCC1(C(=O)NCc2ccc(Cl)c(Nc3nc4cc(C(=O)Nc5ccc(Br)cc5)ccc4n3C)c2)CCCC1 [Example 46, N-(4-Bromophenyl)-2-{2-chloro-5-[(1-ethylcyclopentylamido)methyl]-phenylamino}-1-methylbenzimidazole-5-carboxamide]
100 | CSC1(C(=O)NCc2ccc(Cl)c(Nc3nc4cc(C(=O)Nc5ccc(Br)cc5)ccc4n3C)c2)CCCC1 [Example 47, N-(4-Bromophenyl)-2-{2-chloro-5-[(1-methylthiocyclopentylamido)-methyl]phenylamino}-1-methylbenzimidazole-5-carboxamide]
100 | Cn1c(Nc2cc(CNC(=O)C3(CC4CC4)CCCC3)ccc2Cl)nc2cc(C(=O)Nc3ccc(Br)cc3)ccc21 [Example 48, N-(4-Bromophenyl)-2-{2-chloro-5-[(1-cyclopropylmethylcyclopentyl-amido)methyl]phenylamino}-1-methylbenzimidazole-5-carboxamide]
100 | Cn1c(Nc2cc(CNC(=O)C3(C)CCCO3)ccc2Cl)nc2cc(C(=O)Nc3ccc(Br)cc3)ccc21 (stereo not drawn) [Example 49, N-(4-Bromophenyl)-2-{2-chloro-5-[(2-methyl-2-tetrahydrofurylamido)-methyl]phenylamino}-1-methylbenzimidazole-5-carboxamide]

Continued, compound first:

Compound | inhibition at 10 µM [%]
Cn1c(Nc2cc(CNC(=O)OC(C)(C)C)ccc2Cl)nc2cc(C(=O)Nc3ccc(Br)cc3)ccc21 [Example 34, tert-Butyl 3-[5-(4-bromophenylcarbamoyl)-1-methyl-2-benzimidazolylamino]-4-chlorobenzylcarbamate] | 100
Cn1c(Nc2cc(CNC(=O)C3CCC(F)(F)CC3)ccc2Cl)nc2cc(C(=O)Nc3ccc(Br)cc3)ccc21 [Example 35, N-(4-Bromophenyl)-2-{2-chloro-5-[(4,4-difluorocyclohexylamido)-methyl]phenylamino]-1-methylbenzimidazole-5-carboxamide] | 100
Cn1c(Nc2cc(CNC(=O)c3c(F)cccc3Cl)ccc2Cl)nc2cc(C(=O)Nc3ccc(Br)cc3)ccc21 [Example 36, N-(4-Bromophenyl)-2-{2-chloro-5-[(2-chloro-6-fluorobenzamido)methyl]phenylamino}-1-methylbenzimidazole-5-carboxamide] | 100
Cn1c(Nc2cc(CNC(=O)C3(C(F)(F)F)CC3)ccc2Cl)nc2cc(C(=O)Nc3ccc(Br)cc3)ccc21 [Example 37, N-(4-Bromophenyl)-2-{2-chloro-5-[(1-trifluoromethylcyclopropylamido)methyl]phenylamino}-1-methylbenzimidazole-5-carboxamide] | 100
Cn1c(Nc2cc(CNC(=O)C3(C#N)CC3)ccc2Cl)nc2cc(C(=O)Nc3ccc(Br)cc3)ccc21 [Example 38, N-(4-Bromophenyl)-2-{2-chloro-5-[(1-cyanocyclopropylamido)methyl]-phenylamino}-1-methylbenzimidazole-5-carboxamide] | 100
Cn1c(Nc2cc(CNC(=O)[C@@H]3C[C@H]3c3ccccc3)ccc2Cl)nc2cc(C(=O)Nc3ccc(Br)cc3)ccc21 [Example 39, N-(4-Bromophenyl)-2-{2-chloro-5-[(trans-2-phenylcyclopropylamido)-methyl]phenylamino}-1-methylbenzimidazole-5-carboxamide] | 100
Cn1c(Nc2cc(CNC(=O)C3(C)COC3)ccc2Cl)nc2cc(C(=O)Nc3ccc(Br)cc3)ccc21 [Example 40, N-(4-Bromophenyl)-2-{2-chloro-5-[(3-methyl-3-oxetanylamido)methyl]-phenylamino}-1-methylbenzimidazole-5-carboxamide] | 98
Cn1c(Nc2cc(CNS(=O)(=O)c3cccs3)ccc2Cl)nc2cc(C(=O)Nc3ccc(Br)cc3)ccc21 [Example 44, N-(4-Bromophenyl)-2-{2-chloro-5-[(2-thienylsulfonamido)methyl]phenylamino}-1-methylbenzimidazole-5-carboxamide] | 100
Cn1c(Nc2cc(CNS(=O)(=O)C3CC3)ccc2Cl)nc2cc(C(=O)Nc3ccc(Br)cc3)ccc21 [Example 45, N-(4-Bromophenyl)-2-{2-chloro-5-[(cyclopropylsulfonamido)methyl]-phenylamino}-1-methylbenzimidazole-5-carboxamide] | 100
Cn1c(Nc2cc(CNC(=O)C3(CN)CC3)ccc2Cl)nc2cc(C(=O)Nc3ccc(Br)cc3)ccc21 [Example 50, 2-(5-{[1-(Aminomethyl)cyclopropylamido]methyl}-2-chlorophenylamino)-N-(4-bromophenyl)-1-methylbenzimidazole-5-carboxamide] | 100
